Data published in article PMC12155470, “Novel Tetraene Macrodiolides Are Effective Inducers of Mitochondrial Apoptosis in Jurkat Cells” (International Journal of Molecular Sciences, 2025).

Experiments:
[1] = system: HL60; experiment: In vitro cytotoxic activity, 7-AAD flow cytometry, HL60; assay type: cell-based; details: Homo sapiens, HL-60, 24 h incubation, mean ± SD, triplicate
Text: (§1) The investigation focused on the assessment of the synthesized compounds’ toxicities, utilizing a panel of six diverse cell lines. The selection of cells was based on the specific features of their metabolism, namely, Jurkat, K562, U937, and HL60 cells are suspension cultures of oncohematologic origin, and HEK293 is a conditionally normal line transformed by adenovirus and often used as control cells along with fibroblasts. The normal fibroblast line (Wi-38) utilized in the experiment was diploid and was obtained from the lung tissue of an aborted fetus. The total cytotoxic activity of 16 compounds was studied using flow cytometry.
(§2) Human cancer cell lines, including Jurkat, K562, U937, HL60, and fibroblasts (Wi-38), were obtained from the European Authentic Cell Culture Collection and further cultured according to established standard protocols using sterile methods. The cells were cultivated in RPMI 1640 (for Jurkat and K562) and DMEM (for Wi-38 and HEK293) media (Gibco, Billings, MT, USA), with the addition of […] glutamine, 10% FBS (Sigma, Kanagawa, Japan), and 100 U/mL penicillin–streptomycin (Sigma). All cell types were cultivated in a humidified atmosphere containing 5% CO₂ at a temperature of 37 °C. Subculturing was performed at two- to three-day intervals. The cells were subsequently seeded into 24-well plates at a density of 5 × 10^4 cells per well and incubated overnight. Subsequent subculturing was then performed at two-day intervals, with a seeding density of 1 × 10^5 cells per 24-well plate, using RPMI medium with 10% FBS [49].
(§3) The dissolution of the compounds tested was initially performed in dimethyl sulfoxide (DMSO) with an initial solution of 100 mM in 10% DMSO. Subsequently, the solution was diluted in a complete culture medium, namely, Dulbecco’s medium, modified Eagle’s medium (DMEM), or Roswell Park Memorial Institute medium (RPMI). Substances were added at concentrations of 10, 1, 100, 10, 1, and 0.1 μM on the day after seeding and incubated for 24 h. Following this, the cells were washed with a phosphate-buffered saline (PBS) solution and stained with 7AAD dye, as per the manufacturer’s protocol for flow cytometry. The CC50 value, which characterizes the parameters of toxicity (i.e., the concentration of the compound required for 50% inhibition of cell viability in vitro), was calculated. logC versus % inhibition was plotted, and statistical data processing was performed using Excel and GraphPad Prism v.8.0.2 (San Diego, CA, USA, 2019). The data obtained from three independent experiments were expressed as the mean of three measurements for each concentration, with the standard deviation indicated as well. These values were then relative to the control values (0.1% DMSO), which were taken as 100%.
(§4) 7-AAD (7-aminoactinomycin D) dye (eBioscience™, San Diego, CA, USA) was used to assess cell viability. Following incubation with the test compounds, the cells were harvested, washed with a phosphate–salt buffer (PBS), and subjected to centrifugation at 400× g for five minutes. The cell sediment was resuspended in 200 μL of staining buffer for flow cytometry (PBS without calcium and magnesium, 2.5% FBS) and stained with a 1 mM 7-AAD dye solution for 15 min in the dark at room temperature. Subsequently, all samples, including experimental and control groups, were analyzed using a BD FACSAria™ III Cell Sorter flow cytometer (Milpitas, CA, USA).

[2] = In vitro cytotoxic activity, 7-AAD flow cytometry, Hek293; assay type: cell-based; details: human, HEK293 cells, conditionally normal line, 24 h incubation, mean ± SD
Text: as §1, §2, §3, §4

[3] = system: K562; experiment: In vitro cytotoxic activity, 7-AAD flow cytometry, K562; assay type: cell-based, Human; details: 24 h incubation, mean ± SD, triplicate
Text: as §1, §2, §3, §4

[4] = system: U937; experiment: In vitro cytotoxic activity, 7-AAD flow cytometry, U937; assay type: cell-based, Human; details: Homo sapiens, U-937, 24 h, 24 h incubation, mean ± SD, triplicate
Text: as §1, §2, §3, §4

[5] = system: Jurkat; experiment: In vitro cytotoxic activity, 7-AAD flow cytometry, Jurkat; assay type: cell-based, Human; details: 24 h incubation, mean ± SD, triplicate
Text: as §1, §2, §3, §4

[6] = system: Jurkat cells; experiment: Cytochrome C assay (flow cytometry); assay type: cell-based, Human; details: compound at CC50 concentration, 6 h (Figure 4; method says four hours)
Text: The quantification of cytochrome c release from the mitochondria in apoptotic cells was used to detect the mitochondrial pathway of apoptosis in the cells by flow cytometry. This study employed a direct labeling method that utilized an anti-cytochrome cFITC antibody, an anti-IgG1-FITC isotype control, and optimized fixation, permeabilization, and blocking buffers to detect cytochrome c by flow cytometry (Luminex®, Austin, TX, USA). […] The Jurkat cells were exposed to test substances at concentrations corresponding to their 24-h CC50 in these cells for a period of four hours. Thereafter, analysis by flow cytometry (NovoCyte Flow Cytometry™ Agilent, San Diego, CA, USA) was conducted. The acquired data were processed using NovoExpress® software (version 1.6.2) (ACEA (Agilent, Santa Clara, CA, USA)).
Figure 4 Detection of cytochrome c in Jurkat cells stained with a FlowCellect Cytochrome c Kit. The control compound, carbonyl cyanide m-chlorophenylhydrazone (CCCP), was administered at a concentration equal to its CC50 value. Compound 9d was added to the sample cells at a CC50 concentration (see the table of cell viability). The cells were incubated for 6 h. We compared the numerical values to determine the reliability of the differences observed between the control sample and the samples treated with the synthesized substances. […]

[7] = In vitro cytotoxic activity, 7-AAD flow cytometry, normal fibroblasts; assay type: cell-based; details: human, Wi-38 normal lung fibroblasts, normal fibroblasts Wi-38, 24 h incubation, mean ± SD, read-out: Fibrobl. (CC50)
Text: as §1, §2, §3, §4

[8] = system: Jurkat cells; experiment: Mitodamage assay (MitoSense Red, Annexin V-CF488A, 7-AAD); assay type: cell-based, Human; details: compound at CC50 concentration, four hours
Description: To this end, MitoSense Red, a fluorescent dye that accumulates predominantly in mitochondria and responds to changes in membrane potential, was utilized. […] Two dyes commonly employed for detecting apoptosis in cells are annexin V and 7AAD. […] Therefore, the dissipation of mitochondrial membrane potential and the associated apoptosis process in Jurkat tumor cells were analyzed in response to exposure to synthesized macrodiolides. MitoSense Red, Annexin V-CF488A, and 7-AAD were used as dyes for this analysis (see Figure 3). A flow cytometry kit (FlowCellect™ MitoDamage Kit from Millipore, Hayward, CA USA) was utilized, as it facilitates a multiparametric evaluation of three markers of cell health. These markers include changes in mitochondrial potential (early apoptosis and cell stress), phosphatidylserine expression on the cell surface (late apoptosis), and membrane permeability (cell death). The method of the simultaneous detection of mitochondrial damage was performed according to the well-known technique.  Figure 3 Detection changes in mitochondrial membrane potential (ΔΨ) and coupled early and late apoptosis in Jurkat cells treated with compounds 9d, 8d, 7d, and 6d. Staurosporine and carbonyl cyanide-m-chlorophenylhydrazone were utilized as control compounds. The addition of all the tested compounds was executed at the CC50 concentration (refer to the provided table for the cytotoxicities of the synthesized compounds). The staining of cells was conducted using MitoSense Red, Annexin V-CF488A, and 7-AAD. The incubation period lasted for a duration of four hours. The presence of three *** (p < 0.001) and two asterisks ** (p < 0.005) indicates the significance of the observed differences between the values obtained in the control sample and the samples treated with the synthesized substances (comparison was performed by one-way ANOVA). All experiments were performed in triplicate.

O=C1CCCCC/C=C\CC/C=C\CCCCCC(=O)OCCCCCC/C=C\CC/C=C\CCCCCCO1 [Compound 9d]
CC50 [1]: 13.5 ± 1.21 nM
CC50 at 24 h [2]: 42.6 ± 4.31 nM
CC50 [3]: 11 ± 1.25 nM
CC50 ([3]; Homo sapiens, K562, 24 h): 12.1 nM
CC50 [4]: 12.2 ± 1.41 nM
CC50 [5]: 12.1 ± 1.77 nM
CC50 ([5]; Homo sapiens, Jurkat, 24 h): 11 nM
cells releasing cytochrome c into the cytoplasm (Cytochrome loss %) [6]: 68.22%
CC50 at 24 h [7]: 64.3 ± 5.81 nM
percentage of cells in apoptosis ([8]; Jurkat, Annexin V-CF488A/7-AAD): 50.34%
Jurkat cells with reduced mitochondrial membrane potential (Δψ dissipation) ([8]; MitoSense Red): 77.42%
